The values that follow come from ChEMBL document CHEMBL1132784, “Dibasic inhibitors of human mast cell tryptase. Part 2: structure-activity relationships and requirements for potent activity” (Bioorg Med Chem Lett, 2000).

One experiment deals with Serine protease 1 (Homo sapiens, UniProt P07477). Put plainly: Compound was evaluated for its inhibitory potency against trypsin.
Another experiment addresses Plasminogen (Homo sapiens, UniProt P00747). In words: Compound was evaluated for its inhibitory potency against plasmin.
Another experiment has as its target Prothrombin (Homo sapiens, UniProt P00734). Put plainly: Compound was evaluated for its inhibitory potency against thrombin.
Another experiment concerns the target Tryptase (Homo sapiens, UniProt Q9BZJ3+Q15661+Q9NRR2). In words: Evaluated for its inhibitory potency against tryptase. The format is protein assay.

Sequence of Serine protease 1 (P07477 whole entry): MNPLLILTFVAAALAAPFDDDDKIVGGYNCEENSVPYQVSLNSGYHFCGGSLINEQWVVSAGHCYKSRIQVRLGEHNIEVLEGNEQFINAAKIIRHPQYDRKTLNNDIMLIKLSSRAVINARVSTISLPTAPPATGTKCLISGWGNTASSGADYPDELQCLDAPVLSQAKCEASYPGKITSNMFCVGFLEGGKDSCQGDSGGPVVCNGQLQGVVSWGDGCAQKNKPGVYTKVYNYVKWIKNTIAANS
Sequence of Plasminogen (P00747 97-580 limits assumed): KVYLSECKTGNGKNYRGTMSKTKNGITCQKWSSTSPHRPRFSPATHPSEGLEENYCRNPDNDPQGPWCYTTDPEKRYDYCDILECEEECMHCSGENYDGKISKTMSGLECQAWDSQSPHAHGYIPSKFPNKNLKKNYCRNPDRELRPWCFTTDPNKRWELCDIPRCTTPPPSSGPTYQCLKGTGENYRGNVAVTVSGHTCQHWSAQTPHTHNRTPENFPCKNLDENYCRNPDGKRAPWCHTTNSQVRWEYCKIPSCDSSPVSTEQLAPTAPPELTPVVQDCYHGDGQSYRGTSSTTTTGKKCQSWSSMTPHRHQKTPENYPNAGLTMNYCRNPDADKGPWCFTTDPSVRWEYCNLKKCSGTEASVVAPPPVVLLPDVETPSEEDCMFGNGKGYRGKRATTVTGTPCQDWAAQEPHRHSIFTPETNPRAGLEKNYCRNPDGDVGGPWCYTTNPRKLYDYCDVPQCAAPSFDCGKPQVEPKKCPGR
Sequence of Plasminogen (P00747 581-810 limits assumed): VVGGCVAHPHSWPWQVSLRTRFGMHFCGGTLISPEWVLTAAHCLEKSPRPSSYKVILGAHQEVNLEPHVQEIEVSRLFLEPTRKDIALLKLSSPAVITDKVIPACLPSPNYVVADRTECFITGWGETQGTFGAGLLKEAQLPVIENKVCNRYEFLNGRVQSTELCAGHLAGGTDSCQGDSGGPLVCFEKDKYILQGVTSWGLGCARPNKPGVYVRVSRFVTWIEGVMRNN

What is called Ki is a dissociation constant, usually derived from enzyme kinetics or from competition with a known ligand. On to `N=C(N)c1ccc(CNC(=O)N2CCN(C(=O)O[C@H]3CCC[C@@H](OC(=O)N4CCN(C(=O)NCc5ccc(C(=N)N)cc5)CC4)CCC3)CC2)cc1`, for which the Ki at Serine protease 1 is 25 µM; on Plasminogen, 134 µM; at Prothrombin it was 60 µM; on Tryptase, 0.009 µM.

For `NCCCCCCNC(=O)N1CCN(C(=O)O[C@H]2CCC[C@@H](OC(=O)N3CCN(C(=O)NCCCCCCN)CC3)CCC2)CC1`, the Ki at Serine protease 1 is over 1000 µM; on Plasminogen it was over 1000 µM; at Prothrombin, over 1000 µM; at Tryptase it was 1 µM.

For `CC(=N)N1CCC(CNC(=O)N2CCN(C(=O)O[C@H]3CCC[C@@H](OC(=O)N4CCN(C(=O)NCC5CCN(C(C)=N)CC5)CC4)CCC3)CC2)CC1`, the Ki at Serine protease 1, at Plasminogen, on Prothrombin and on Tryptase was over 1000 µM each time.

On to `N=C(N)Nc1ccc(CC(=O)N2CCN(C(=O)O[C@H]3CCC[C@@H](OC(=O)N4CCN(C(=O)Cc5ccc(NC(=N)N)cc5)CC4)CCC3)CC2)cc1`, for which the Ki at Serine protease 1 is 82 µM; on Plasminogen it was over 1000 µM; on Prothrombin, 255 µM; at Tryptase it was 0.0005 µM.

Consider `N=C(N)c1ccc(CC(=O)N2CCN(C(=O)O[C@H]3CCC[C@@H](OC(=O)N4CCN(C(=O)Cc5ccc(C(=N)N)cc5)CC4)CCC3)CC2)cc1`, for which the Ki at Serine protease 1 was 11 µM; at Plasminogen it was 155 µM; at Prothrombin, 34 µM; on Tryptase, 0.0002 µM.

As to `O=C(CCCC1CCNCC1)N1CCN(C(=O)O[C@H]2CCC[C@@H](OC(=O)N3CCN(C(=O)CCCC4CCNCC4)CC3)CCC2)CC1`, the inhibitory constant (Ki) on Serine protease 1 was over 1000 µM; at Plasminogen it was over 1000 µM; at Prothrombin it was over 1000 µM; at Tryptase, 0.1 µM.

For the compound `N=C(N)N1CCC(CC(=O)N2CCN(C(=O)O[C@H]3CCC[C@@H](OC(=O)N4CCN(C(=O)CC5CCN(C(=N)N)CC5)CC4)CCC3)CC2)CC1`, the Ki at Serine protease 1 was 445 µM; at Plasminogen, over 1000 µM; at Prothrombin, 130 µM; at Tryptase, 0.005 µM.

On to `N=C(N)Nc1ccc(CNC(=O)N2CCN(C(=O)CCCCCCCC(=O)N3CCN(C(=O)NCc4ccc(NC(=N)N)cc4)CC3)CC2)cc1`, for which the Ki at Serine protease 1 is 29 µM; at Plasminogen, over 1000 µM; at Prothrombin, over 1000 µM; on Tryptase, 0.0005 µM.

In the case of `N=C(N)Nc1ccc(CNC(=O)N2CCN(C(=O)O[C@H]3CCC[C@@H](OC(=O)N4CCN(C(=O)NCC5CCNCC5)CC4)CCC3)CC2)cc1`, the Ki at Serine protease 1 was 148 µM; on Plasminogen, over 1000 µM; at Prothrombin, over 1000 µM; on Tryptase, 0.07 µM.

Turning to `N=C(N)Nc1ccc(CNC(=O)N2CCN(C(=O)O[C@H]3CCC[C@@H](OC(=O)N4CCN(C(=O)NCc5ccc(N)cc5)CC4)CCC3)CC2)cc1`, the Ki is 126 µM at Serine protease 1, over 1000 µM at Plasminogen, over 1000 µM at Prothrombin and 0.82 µM at Tryptase.
